{"source": "patent US20220143119A1", "about": "“CROTON LECHLERI COMPOSITIONS FOR USE IN THE TREATMENT OF SKIN CANCER” (ALPHYN BIOLOGICS, LLC, priority 2019, published 2022)", "origin": "cited, not measured here", "system": "human melanoma SK23", "data": [{"smiles": "COc1ccc2c(=O)oc3c(OC)cc(CCN(C)C)c4c(=O)oc1c2c34", "note": "[taspine]", "values": [{"measurement": "inhibition against human melanoma SK23", "value": "exhibits inhibition"}]}]}
